The subject of one series is Mus musculus. Particulars: acute; oral; mortality.
In the next series the test system is Folsomia candida. Particulars: chronic/long-term; reproduction.
The next series concerns Apis mellifera. The settings on record: acute; duration: 48 hours; oral; unspecified; mortality.
Another series concerns Plant. Particulars: chronic/long-term; development.
A further series concerns Canidae. Particulars: subchronic; duration: 90 days; oral; Dog Other; histopathology: nonneoplastic.
A further series has as its system Anas platyrhynchos. Particulars: oral, mortality.
The test system of another series is Daphnia magna. The settings on record: chronic/long-term; duration: 21 days.
In another series the test system is Typhlodromus pyri. The settings on record: not reported.
Setting [1] is: reproduction developmental, reproduction.

This note sets out measurements from EPA's ToxValDB 9.5 (doi:10.2903/j.efsa.2010.1624).

Structures are written as SMILES. Converted amounts (≈) assume the structure as drawn.

In general, NOAEL refers to the highest dose or exposure tested at which no adverse effect was seen. On to `CC(C)N1C(=O)N(c2ccccc2)CSC1=NC(C)(C)C` [Buprofezin], for which the LD50 with Rattus norvegicus (acute, oral, mortality) was greater than 2000 mg/kg-day; in the series with Mus musculus it was greater than 2000 mg/kg-day; in the series with Apis mellifera, greater than 164 µg/piece; in the series on Anas platyrhynchos (acute, unspecified), greater than 2000 mg/kg-day; in the series with Colinus virginianus (acute, oral, mortality) it was greater than 2000 mg/kg-day. Moreover, the NOAEL came to 1 mg/kg-day in the series with Rattus norvegicus (chronic, duration: 2 years, histopathology: nonneoplastic); 50 mg/kg-day in the series on Rattus norvegicus (developmental, development); 10 mg/kg-day in the series on Canidae. The NOEL in the series with Rattus norvegicus (setting [1]) came out at 66 mg/kg-day. Besides, the NOEC was found to be 62.5 mg/kg in the series with Folsomia candida; 0.052 mg/L in the series with Oncorhynchus mykiss (chronic/long-term, growth); 0.08 mg/L in the series on Daphnia magna; 500 mg/kg in the series on Tagia sp. (chronic/long-term, reproduction); 48 mg/kg-day in the series on Colinus virginianus (developmental, development); 198 mg/kg-day with Colinus virginianus (setting [1]). For the same molecule, the LEL with Plant was greater than 100 g/ha; with Typhlodromus pyri (mortality), 3000 g/ha; with Typhlodromus pyri (reproduction), 3000 g/ha. For the same molecule, the LC50 is greater than 1310 mg/kg-day in the series on Anas platyrhynchos (short-term, feed); 0.33 mg/L (≈ 1.08 µM) in the series on Oncorhynchus mykiss (acute, duration: 96 hours, mortality); greater than 1000 mg/kg in the series with Tagia sp. (acute, duration: 14 days, mortality); greater than 1310 mg/kg-day in the series on Colinus virginianus (acute, oral, diet, mortality).
